Experiment [1] has as its system nasal congestion of allergic rhinitis. To be noted: Phase III test, Non-patent Document 7; cited from earlier work.
The subject of experiment [2] is nasal congestion reaction. The conditions noted are these: guinea pigs, experimental allergic rhinitis model, Non-patent Document 8; cited from earlier work.
Experiment [3] relates to patients with sleep apnea syndrome / sleeping disorder. Put plainly: Daytime Epworth sleepness scale (ESS) test. The conditions noted are these: total of 8 conditions, 10 points or less is normal, oral 10 mg/day. The format is in vivo, human. On the procedure: (§1) Olopatadine hydrochloride was orally administered at a dose of 10 mg/day [a 5-mg tablet of Allelock (registered trademark: Kyowa Hakko Kogyo Co., Ltd.) was administered everyday, twice a day, with one tablet for each administration] to three patients (patient Nos. 1 to 3) with sleep apnea syndrome complicated by allergic rhinitis and seven patients (patient Nos. 4 to 10) with sleeping disorder which is not complicated by allergic rhinitis including four patients (patient Nos. 4 to 6 and 8) with sleep apnea syndrome which is not complicated by allergic rhinitis. Before and after the administration of olopatadine hydrochloride, an apnea-hypopnea index (AHI), an apnea index (AI) and an arousals index per hour were measured respectively by polysonography (PSG) for each patient. Further, before and after the administration of olopatadine hydrochloride, a test for daytime Epworth sleepness scale was performed according to the following.
In the following conditions 1 to 8, sleepiness was determined according to the next four levels, and seriousness of daytime sleepiness was evaluated by the total (ESS) of the points. A case in which ESS is 10 points or less is evaluated as normal.
2 points=sometimes sleeps
1. when sitting and reading a book
2. when watching television
3. when sitting in a public place without movement (for example, in a theater or a conference room) […]

The test system is the same in experiment [4]. Nature of the experiment: Polysonography (PSG) before and after administration of olopatadine hydrochloride. The format is in vivo, human. The conditions noted are these: for AI After therapy: apnea index by PSG; for AHI After therapy: apnea-hypopnea index by PSG; for Arousals Index After therapy: arousals index per hour by PSG. Here is the method: as §1
The presence or absence of allergic rhinitis was confirmed by performing RAST (radioallergosorbent test) for 12 types of antigens [house dust, Dermatophagoides pteronyssinus, Japanese cedar, Hinoki cypress, Japanese alder, ragweed, mugwort, goldenrod, Cocksfoot (Dactylis glomerata), Candida albicans, mold and animal epithelium].
The patients uncomplicated by allergic rhinitis had airway obstruction caused by non-atopic rhinitis.

Experiment [5] shares this test system. Put plainly: Estimation of effect on chief-complaint symptoms (snore, apnea, daytime sleepiness). Type of experiment: in vivo, human. To be noted: for Estimation of effect: oral 10 mg/day. On the procedure:
as §1
The effect of the agent was estimated according to the following standard.
Incidentally, as objective assessment, improved conditions in values of AHI, AI, arousals index and ESS were used for reference.

Setting [6] is: oral 10 mg/day, 74-160 days, one line per patient (Nos. 4-10), sleeping disorder not complicated by allergic rhinitis.
Setting [7] is: oral 10 mg/day, 160-342 days, one line per patient (Nos. 1-3), sleep apnea syndrome complicated by allergic rhinitis.

Several values for one entry are separate records, joined by “and”; a condition that tells them apart may be missing. Equal entries are not always repeated. Entries after “also recorded” stand apart in the source; their conditions may differ. Structures can show the parent of a compound that is named as a salt.

As to `CN(C)CC/C=C1/c2ccccc2COc2ccc(CC(=O)O)cc21` [compound 1, (Z)-11-(3-dimethylaminopropylidene)-6,11-dihydrodibenzo[b,e]oxepine-2-acetic acid], the “Effect on nasal congestion of allergic rhinitis” value in experiment [1] was “highly improve the nasal congestion of allergic rhinitis”. In addition, in experiment [2], the “Action on nasal congestion reaction” value is “inhibitory action on a nasal congestion reaction”.
For the compound `CN(C)CC/C=C1/c2ccccc2COc2ccc(CC(=O)O)cc21` [olopatadine hydrochloride], the “ESS After therapy” value was 11 points and 10 points (2×) and 8 points and 9 points (2×) and 12 points in experiment [3] (74-160 days, one line per patient (Nos. 4-10), not complicated by allergic rhinitis); 12 points and 11 points and 9 points in experiment [3] (160-342 days, one line per patient (Nos. 1-3), complicated by allergic rhinitis). Further, the “AI After therapy” value in experiment [4] (setting [6]) was 3.4 and 1.2 and 3.1 and 0.8 (2×) and 0.4 and 2.8; in experiment [4] (setting [7]), 4.3 and 1.5 and 7.6. Besides, the “AHI After therapy” value was 5.8 and 2.7 and 11.1 in experiment [4] (oral 10 mg/day (5-mg tablet twice a day), 160-342 days, one line per patient (Nos. 1-3), sleep apnea syndrome complicated by allergic rhinitis); 4.2 and 2.6 and 4.5 and 1.3 and 0.9 and 1.8 and 3.4 in experiment [4] (setting [6]). The “Arousals Index After therapy” value in experiment [4] (setting [6]) is 5.9 and 2.6 and 5.3 and 2.3 and 1.8 and 2.1 and 4.9; in experiment [4] (setting [7]) it was 10.3 and 4.4 and 18.9. Moreover, the Estimation of effect entry was “Improved; also recorded: Markedly” in experiment [5] (74-160 days, one line per patient (Nos. 4-10), sleeping disorder not complicated by allergic rhinitis) and “Improved; also recorded: Markedly” in experiment [5] (160-342 days, one line per patient (Nos. 1-3), sleep apnea syndrome complicated by allergic rhinitis). Moreover, the “Clinical effect on symptoms of sleeping disorder” value in experiment [5] (patients with sleep apnea syndrome complicated by allergic rhinitis, snore, apnea, hypopnea, arousals, daytime sleepiness) was “improves symptoms of sleeping disorder”; in experiment [5] (patients with sleeping disorder not complicated by allergic rhinitis, snore, apnea, hypopnea, arousals, daytime sleepiness, morning headache), “improves symptoms of sleeping disorder”; in experiment [5] (regardless of the presence or absence of complication by allergic rhinitis), “improves symptoms of sleeping disorder”.

(Values after patent US20080287531A1, “Preventive and/or Therapeutic Agent for Sleeping Disorder” (Kyowa Hakko Co., Ltd., priority 2004, published 2008).)
